Source: patent US11286236B2, “Compound, agent and composition for the suppression of cancer growth” (Vector Vitale IP LLC, priority 2018, dated 2022)
Structures can show the parent of a compound that is named as a salt.

How the values were obtained:
[1] = test system: Mouse B16 melanoma cells (MM-4 cell line); assay: Cytotoxic/cytostatic activity of E2+85Rbe and antitumor drug added simultaneously; format: cell-based
Description: The effects of the complex action of various doses of the investigated substances were evaluated using the concept of synergistic, additive and antagonistic effects of the drugs. The mathematics are detailed below. […] The effects were calculated using the Chou-Talalay method according to the following equation (“CI” refers to the “combination index”) (see T.-C. […] Where both the ^85Rb-enriched rubidium salt (referred to as “E2+^85Rbe”) and an AD were administered, they were administered simultaneously.

[2] = test system: Ehrlich ascites carcinoma; assay: In vivo antitumor activity against Ehrlich ascites carcinoma; design: species or system mouse
Description: Outbred mice were administered Ehrlich ascites carcinoma cells (EAC) intraperitoneally (IP) at a dose of 2.5×10^5 cells in 0.25 ml of normal saline solution. The compounds under study, 1)^85RbeE2, was dissolved in deuterium-depleted water and 2) Cisplatin (Teva, the Netherlands), was dissolved in normal saline solution. The drugs were administered starting from the first day after mice were inoculated with tumor cells, using a microinjection syringe, at the following doses: 1)^85Rbe-E2 at a dose of 750 μg/mouse (weighing 20 g) in a volume of 0.3 ml as 3 IP injections (1 injection—250 μg/mouse) on the 1st, 4th and 7th day of the experiment; 2) Cisplatin at a dose of 4.5 mg/kg or 1.5 mg/kg as 3 IP injections on the 2nd, 5th and 8th day of the experiment. The dynamics of tumor growth in the experimental animals was observed (based on the volume of ascites in the peritoneal cavity) after the tumor cell inoculation and for 31 days of the experiment. On the 15th and 22nd day after IP administration of tumor cells, all the fluid accumulated in each animal's abdomen was extracted and the total number of live/dead cells in each mouse was determined. In addition, some mice were used to assess a survival rate of animals in the experiment.
Laboratory animals. 84 outbred female 10 to 12-week old mice weighing 22-26 g were used in the experimental study. The animals were obtained from the animal vivarium at R.E. Kavetsky IEPOR NASU. […] The animals were maintained in plastic cages, under natural light-dark cycles, fed standard food and allowed free access to food and tap water.
Tumor model. Ascites strain of Ehrlich ascites carcinoma maintained on outbred mice obtained from the cell and tissue line bank at R.E. Kavetsky IEPOR NASU was used in the experiment. To prepare the strain for injection, tumor cells derived from ascitic fluid were placed in normal saline solution and cellularity of the suspension was assessed in a hemocytometer and adjusted to a concentration of 1·10^6 cells/ml with saline solution. The tumor cells were inoculated by injecting 250 mcl of cell suspension from the tumor (0.25×10^6 cells/mouse) into the peritoneal cavity of laboratory animals.
The drugs were administered IP every other day, using a microinjection syringe, at doses specified above as a series of 3 injections of each compound according to the following scheme: ^85Rbe-E2 at a dose of 250 μg/mouse weighing 20 g+CP at a dose of […] 24 hours later (for groups (EAC+CP(4.5)) and (EAC+^85Rbe-E2+CP(4.5)) or […] (for groups (EAC+CP(1.5)) and (EAC+^85Rbe-E2+CP(1.5)) in a volume of 0.25 ml of saline solution (6 injections in total during 8 days).
The tumor growth dynamics in the laboratory animals was observed by daily control of the volume of ascitic fluid in the abdominal cavity of mice starting from the tumor inoculation and for 31 days of the experiment. The dynamics of ascites growth both in control and experimental groups was assessed visually using a 10-point scale, where 0 points were the absence of tumor growth and 10 points were the maximum increase in the size of the abdomen of the mouse with ascites (one point was 0.6 cm of the mean diameter of the mouse abdomen filled with the fluid).
Furthermore, on the 15th and 22nd day after intraperitoneal injection of tumor cells, all ascitic fluid was removed from the abdomen in 2 or 3 animals from each group by washing their peritoneal cavity with saline solution, and live/dead EAC cells were counted in each mouse using the traditional vital dye trypan blue (HyClon, USA) and a hemocytometer.
X=((a)/80)×10^6, where X is the number of cells in 1 ml and a is the number of cells counted in 5 large diagonal squares of the hemocytometer.
7 or 8 mice from each group were used to assess their survival in the experiment. The total lifespan observation time was 31 days from the moment of inoculation of tumor cells.
Statistical data processing. […]

[3] = 85Rbe-E2 750 μg/mouse IP total, alone, 14 mice per group
[4] = Day 15, 85Rbe-E2 750 μg/mouse IP total, alone
[5] = Day 22, 85Rbe-E2 750 μg/mouse IP total, alone
[6] = day 15, 85Rbe-E2 750 μg/mouse IP total, alone
[7] = day 17, 85Rbe-E2 750 μg/mouse IP total, alone
[8] = day 22, 85Rbe-E2 750 μg/mouse IP total, alone
[9] = day 24, 85Rbe-E2 750 μg/mouse IP total, alone
[10] = day 27, 85Rbe-E2 750 μg/mouse IP total, alone
[11] = day 29, 85Rbe-E2 750 μg/mouse IP total, alone
[12] = day 31, 85Rbe-E2 750 μg/mouse IP total, alone

With `Cc1ccc(S(=O)(=O)Nc2ccccc2NC(=O)c2ccccc2)cc1` [^85Rbe − E2, ^85Rb-enriched rubidium salt of N-benzoyl-N′-(4-toluenesulfonyl)-o-phenylenediamine] the “% surviving MM-4 cells” value ([1]; E2+85Rbe 0.5 μg/ml alone) was 32.3 ± 0.7%, the “% surviving MM-4 cells” value ([1]; E2+85Rbe 1 μg/ml alone) was 8.3 ± 0.5% and the “% surviving MM-4 cells” value ([1]; E2+85Rbe 2 μg/ml alone) was 6.4 ± 0.3%. The “Animals without tumor, %” value ([2]; 85Rbe-E2 750 μg/mouse IP total, alone) was 0%, the “Number of animals in the group with tumor” value [2, 3] was 14 and the “Number of animals in the group without tumor” value [2, 3] was 0. For the same molecule, the “Last day with statistically significant inhibition of EAC growth vs control” value ([2]; 85Rbe-E2 alone) was 15 days, the “Suppression of carcinoma growth vs control, average” value ([2]; 85Rbe-E2 alone, by the 15th day after inoculation) was 18% and the “Number of dead cells/mouse, %” value [2, 4] was 4.3 ± 1.5%. For the same molecule, the “Number of live cells/mouse, ×10^6 (M ± m)” value [2, 4] was 1917 ± 408 ×10^6, the “Volume of ascites” value [2, 4] was 6.5 ± 2.9 mL and the “Number of dead cells/mouse, %” value [2, 5] was 15.4 ± 3.6%. For the same molecule, the “Number of live cells/mouse, ×10^6 (M ± m)” value [2, 5] was 2062 ± 438 ×10^6, the “Volume of ascites” value [2, 5] was 16.4 ± 4.8 mL and the “Survival, percent of mice” value ([2]; day 0, 85Rbe-E2 750 μg/mouse IP total, alone) was 100%. For the same molecule, the “Size of mouse abdomen, points” value ([2]; day 9, 85Rbe-E2 750 μg/mouse IP total, alone) was 4.4 ± 0.2 points, the “Size of mouse abdomen, points” value ([2]; day 13, 85Rbe-E2 750 μg/mouse IP total, alone) was 6 ± 0.3 points and the “Size of mouse abdomen, points” value [2, 6] was 6.5 ± 0.3 points. For the same molecule, the “Survival, percent of mice” value [2, 6] was 100%, the “Size of mouse abdomen, points” value [2, 7] was 8 ± 0.6 points and the “Survival, percent of mice” value [2, 7] was 85.7%. For the same molecule, the “Survival, percent of mice” value ([2]; day 19, 85Rbe-E2 750 μg/mouse IP total, alone) was 85.7%, the “Size of mouse abdomen, points” value ([2]; day 20, 85Rbe-E2 750 μg/mouse IP total, alone) was 9 ± 0.4 points and the “Size of mouse abdomen, points” value [2, 8] was 9.5 ± 0.4 points. The “Survival, percent of mice” value [2, 8] was 85.7%, the “Size of mouse abdomen, points” value [2, 9] was 10 points and the “Survival, percent of mice” value [2, 9] was 85.7%. For the same molecule, the “Survival, percent of mice” value ([2]; day 25, 85Rbe-E2 750 μg/mouse IP total, alone) was 71%, the “Survival, percent of mice” value ([2]; day 26, 85Rbe-E2 750 μg/mouse IP total, alone) was 71% and the “Size of mouse abdomen, points” value [2, 10] was 10 points. For the same molecule, the “Survival, percent of mice” value [2, 10] was 57%, the “Survival, percent of mice” value ([2]; day 28, 85Rbe-E2 750 μg/mouse IP total, alone) was 43% and the “Size of mouse abdomen, points” value [2, 11] was 10 points. For the same molecule, the “Survival, percent of mice” value [2, 11] was 29%, the “Size of mouse abdomen, points” value [2, 12] was 10 points and the “Survival, percent of mice” value [2, 12] was 14%. For the same molecule, the “Effect on the survival rate of mice” value ([2]; series of IP injections of 85Rbe-E2 alone) was “did not have a significant effect”.
